Results as given in patent US20240293443A1, “HEPARAN SULFATE MIMETICS TO IMPROVE GLUCOSE CLEARANCE” (The Regents of the University of California, priority 2021, published 2024).
pEC50: −log10 of the molar value. Entries after “also recorded” stand apart in the source; their conditions may differ.

Key:
[1] = system: WT adipocytes; experiment: 3[H]-2-deoxy-glucose uptake in WT MEF-derived adipocytes; assay type: cell-based, mouse; conditions: for glucose clearance in differentiated adipocytes: WT, Wnt inhibitor treatment during the first 3 days of adipogenesis
Description: Cells were seeded on a 24-well plate at a density of 30,000 cells/cm^2. Cells were allowed to grow to confluence for 48 hours. At this point (Day 0), the media were removed, cells were washed with PBS, and differentiation media with or without heparin (100 μg/ml) were added. […] On Day 3 of differentiation, cells were washed with PBS and treated with insulin media, which consisted of 2 μM insulin, and 1 μM rosiglitazone in DMEM with 10% FBS. The cellular cholesterol and triglyceride content was determined after lysing cells in 0.1M NaOH. Total plasma cholesterol and plasma triglyceride levels (Sekisui Diagnostics) and protein levels (BCA protein assay) were determined using commercially available kits.
Cells are washed twice with PBS and placed into DMEM with 2 mg/mL BSA for two hours. […] The insulin solution is then removed and the cells are washed twice with transport solution before radioactive transport solution is added, which consists of 0.25 μCi/well of 3[H]-2-deoxy-glucose and 0.025 mM 2-deoxy-glucose. After a 10-minute incubation in the radioactive transport solution, it is removed and the, the glucose uptake is halted by addition of ice cold PBS. The cold PBS is removed and each well is washed twice with PBS. Then, lysis buffer consisting of 0.1 M NaOH and 0.1% w/v sodium dodecyl sulfate, is added to each well. The radioactive lysate was transferred to a scintillation vial containing 5 mL of Ultima Gold liquid scintillation fluid and analyzed using a liquid Scintillation counter.
Cells were differentiated for 6 days using the standard adipogenic differentiation protocol described above. Each day on Days 0-3, the cells were washed with PBS and incubated with 200 μL solution of DMEM containing GPs at the indicated concentrations added for 1 hour at 37° C. After this time, the media were removed, the cells were washed with PBS, and fresh differentiation media were added. On Day 6, the adipocytes were subjected to the ^3[H]-2-deoxy-glucose uptake assay and the spent media were analyzed for glucose and lactate content as described above.

[2] = system: Ndst1−/− adipocytes; experiment: 3[H]-2-deoxy-glucose uptake in Ndst1−/− MEF-derived adipocytes; assay type: cell-based, mouse; conditions: for glucose clearance in differentiated adipocytes: Ndst1−/−, Wnt inhibitor treatment during the first 3 days of adipogenesis
Description: Cells were seeded on a 24-well plate at a density of 30,000 cells/cm^2. Cells were allowed to grow to confluence for 48 hours. At this point (Day 0), the media were removed, cells were washed with PBS, and differentiation media with or without heparin (100 μg/ml) were added. […] On Day 3 of differentiation, cells were washed with PBS and treated with insulin media, which consisted of 2 μM insulin, and 1 μM rosiglitazone in DMEM with 10% FBS. The cellular cholesterol and triglyceride content was determined after lysing cells in 0.1M NaOH. Total plasma cholesterol and plasma triglyceride levels (Sekisui Diagnostics) and protein levels (BCA protein assay) were determined using commercially available kits. Cells are washed twice with PBS and placed into DMEM with 2 mg/mL BSA for two hours. […] The insulin solution is then removed and the cells are washed twice with transport solution before radioactive transport solution is added, which consists of 0.25 μCi/well of 3[H]-2-deoxy-glucose and 0.025 mM 2-deoxy-glucose. After a 10-minute incubation in the radioactive transport solution, it is removed and the, the glucose uptake is halted by addition of ice cold PBS. The cold PBS is removed and each well is washed twice with PBS. Then, lysis buffer consisting of 0.1 M NaOH and 0.1% w/v sodium dodecyl sulfate, is added to each well. The radioactive lysate was transferred to a scintillation vial containing 5 mL of Ultima Gold liquid scintillation fluid and analyzed using a liquid Scintillation counter. Cells were differentiated for 6 days using the standard adipogenic differentiation protocol described above. Each day on Days 0-3, the cells were washed with PBS and incubated with 200 μL solution of DMEM containing GPs at the indicated concentrations added for 1 hour at 37° C. After this time, the media were removed, the cells were washed with PBS, and fresh differentiation media were added. On Day 6, the adipocytes were subjected to the ^3[H]-2-deoxy-glucose uptake assay and the spent media were analyzed for glucose and lactate content as described above.

[3] = molecular target: T1, Wnt5a (Homo sapiens, UniProt P41221); experiment: Wnt binding to HS-mimetics via ELISA (Wnt5a); conditions: immobilized Wnt5a, biotinylated glycopolymer or heparin
T1 sequence (P41221 62-380): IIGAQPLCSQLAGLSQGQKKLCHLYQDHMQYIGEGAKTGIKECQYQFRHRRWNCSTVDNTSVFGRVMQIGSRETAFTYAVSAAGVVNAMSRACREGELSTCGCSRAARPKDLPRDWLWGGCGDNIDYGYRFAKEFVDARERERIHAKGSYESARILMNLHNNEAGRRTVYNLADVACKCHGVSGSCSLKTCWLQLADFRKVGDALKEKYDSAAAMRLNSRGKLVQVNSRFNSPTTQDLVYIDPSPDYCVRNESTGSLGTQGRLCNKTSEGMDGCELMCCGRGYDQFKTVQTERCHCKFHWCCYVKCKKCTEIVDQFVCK
Description: (§1) Wnt5a and Wnt10b proteins (10 nM solution in 1% (w/v) BSA/DPBS) were immobilized on 96-well tissue culture treated plates overnight at 4° C. The plates were washed twice with 0.05% (v/v) Tween-20 in DPBS and blocked with 1% (w/v) BSA/DPBS for 6 hours at room temperature. Biotinylated HS-mimetic glycopolymers GP or heparin were added to the wells at increasing concentrations in 1% (w/v) BSA/DPBS. After 1 hour incubation, the wells were washed three times with 0.05% Tween-20 in DPBS. Streptavidin-HRP (1:1000 in 1% BSA/DPBS) was added for 45 min at ambient temperature. The wells were again washed three times in 0.05% Tween-20 in DPBS, followed by treatment with 100 μL of TMB substrate for 2-5 min before quenching with 100 μL of 2N sulfuric acid. Absorbance (450 nm) was measured using a Molecular Devices SpectraMax plate reader.

[4] = molecular target: Wnt10b (Homo sapiens, UniProt O00744); experiment: Wnt binding to HS-mimetics via ELISA (Wnt10b); conditions: immobilized Wnt10b, biotinylated glycopolymer or heparin
Description: as §1

[5] = system: WT adipocytes; experiment: Glucose and lactate in spent media (YSI), adipocytes differentiated with heparin; assay type: cell-based, mouse; conditions: heparin 100 μg/ml during differentiation; spent media day 6
Description: Cells were seeded on a 24-well plate at a density of 30,000 cells/cm^2. Cells were allowed to grow to confluence for 48 hours. At this point (Day 0), the media were removed, cells were washed with PBS, and differentiation media with or without heparin (100 μg/ml) were added. Differentiation media consisted of 0.1 μM dexamethasone, 450 μM 3-isobutyl-1-methylxanthine, 2 μM insulin, and 1 μM rosiglitazone in DMEM supplemented with 10% FBS. On Day 3 of differentiation, cells were washed with PBS and treated with insulin media, which consisted of 2 μM insulin, and 1 μM rosiglitazone in DMEM with 10% FBS. The cellular cholesterol and triglyceride content was determined after lysing cells in 0.1M NaOH. Total plasma cholesterol and plasma triglyceride levels (Sekisui Diagnostics) and protein levels (BCA protein assay) were determined using commercially available kits.
MEFs are differentiated to day 6 into adipocytes in a 24 well plate, and on day six (6) 500 μL of media is collected from each well in an Eppendorf tube and immediately frozen in liquid nitrogen. […] Then, the filtrate is analyzed using a YSl 2900, where the sample is loaded into two wells of a 96 well plate, 200 μL media per well. The samples are then analyzed for lactate and glucose concentration.

[6] = system: Primary adipocytes derived from murine subcutaneous white adipose tissue (sWAT) stromal vascular cells; experiment: Glucose uptake in primary adipocytes from sWAT stromal vascular cells; assay type: cell-based; conditions: co-incubated with heparin during adipogenesis
Description: Around 1 g subcutaneous WAT from 8- to 14-week-old, male or female mice was dissected, washed, minced, and digested in 1 ml DMEM containing 0.25 U/ml collagenase D (Sigma) at 37° C. with constant agitation at 200 rpm for 25-35 min. To stop the digestion, complete DMEM including 10% FBS and 1% P/S was added to the digestion mixture. Then the cells were filtered through a 100 μm cell strainer. After centrifugation at 200×g for 10 min, the floating adipocyte fraction (AF) was collected for protein isolation, while the pellet containing stromal vascular fraction (SVF) was resuspended in fresh complete medium and seeded on a 10-cm cell culture dish. At a confluency of ˜80%, cells were seeded on 6- and 12-well plates and grown to confluency for differentiation. Differentiation was induced by using complete DMEM/F12 media supplemented with 1 μM dexamethasone, 0.5 mM isobutylmethylxanthine (IBMX), 5 μg/ml insulin, and 1 μM rosiglitazone. Three days after induction, medium was changed to complete DMEM/F12 supplemented with 5 μg/ml insulin for two days, afterwards cells were maintained in complete DMEM/F12 medium. […]
Cells are washed twice with PBS and placed into DMEM with 2 mg/mL BSA for two hours. […] The radioactive lysate was transferred to a scintillation vial containing 5 mL of Ultima Gold liquid scintillation fluid and analyzed using a liquid Scintillation counter.

[7] = molecular target: T2, lipoprotein lipase (LPL) (Bos taurus, UniProt P11151); experiment: Lipoprotein lipase (LPL) binding to adipocytes; assay type: cell-based, Bovine; conditions: exogenous heparin 100 μg/ml
T2 construct: gift of Gunilla Olivecrona, Umea University
T2 sequence (P11151 29-478): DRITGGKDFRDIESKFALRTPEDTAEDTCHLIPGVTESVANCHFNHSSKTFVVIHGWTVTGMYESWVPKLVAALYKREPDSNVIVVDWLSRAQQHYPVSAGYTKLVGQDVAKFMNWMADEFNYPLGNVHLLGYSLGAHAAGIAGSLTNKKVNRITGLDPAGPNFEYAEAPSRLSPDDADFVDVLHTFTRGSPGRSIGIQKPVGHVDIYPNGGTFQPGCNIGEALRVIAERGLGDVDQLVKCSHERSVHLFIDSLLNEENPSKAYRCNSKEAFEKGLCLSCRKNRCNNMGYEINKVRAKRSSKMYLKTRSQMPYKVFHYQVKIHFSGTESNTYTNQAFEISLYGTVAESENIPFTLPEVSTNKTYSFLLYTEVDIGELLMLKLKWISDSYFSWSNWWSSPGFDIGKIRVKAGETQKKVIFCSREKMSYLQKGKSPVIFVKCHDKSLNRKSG
Description: Bovine LPL generously provided by Gunilla Olivecrona (Department of Biomedical Sciences, Umea University, Umea Sweden)^42. Enzyme activity was determined using ^3H radiolabeled substrate as previously described^43. Molar ratio of biotin to LPL was determined in a HABA displacement assay (Pierce Biotin Quantitation Kit).
LPL binding assays were performed similar to as previously described. Cells were harvested using Accutase cell detachment solution (Millipore) and washed twice with PBS. Cells were incubated for 15 min at 37° C. in serum free media in the absence or presence of 5 mU/ml each of recombinant heparin lyases 1, 11, and 111. Treated and untreated cells were washed twice with PBS, chilled on ice for 20 min and incubated with 50 nM biotinylated LPL in 1% BSA supplemented PBS at 4° C. for 1 hour. Following the incubation, cells were washed twice in ice-cold PBS and incubated with 0.4 μg/mL Phycoerythrin-Cy5 conjugated Streptavidin in 1% BSA supplemented PBS at 4° C. A set of cells was exposed only to Phycoerythrin-Cy5 conjugated Streptavidin and was used as background control. Cells were washed twice with PBS and analyzed by flow cytometry.

[8] = system: WT adipocytes; experiment: [9,10-3H(N)]-Palmitate (FFA) uptake in adipocytes; assay type: cell-based, mouse; conditions: chemical inhibition of HS (heparin 100 μg/ml)

Chain of Wnt10b (O00744 29-389, species assumed): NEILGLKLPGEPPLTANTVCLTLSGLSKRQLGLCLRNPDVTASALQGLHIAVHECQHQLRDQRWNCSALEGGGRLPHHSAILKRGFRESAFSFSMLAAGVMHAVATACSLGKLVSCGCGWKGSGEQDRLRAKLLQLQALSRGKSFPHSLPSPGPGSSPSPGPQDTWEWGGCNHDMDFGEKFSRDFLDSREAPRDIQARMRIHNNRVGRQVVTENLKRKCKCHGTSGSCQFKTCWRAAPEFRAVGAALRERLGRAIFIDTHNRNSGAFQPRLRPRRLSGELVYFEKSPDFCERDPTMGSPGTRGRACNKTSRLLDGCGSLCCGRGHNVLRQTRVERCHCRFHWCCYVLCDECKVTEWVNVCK

Row | pEC50 [3] | pEC50 [4] | binding of lipoprotein lipase (LPL) [7] | Compound | toxicity to WT adipocytes ([1]; 10 nM) | glucose clearance in differentiated adipocytes [1] | glucose clearance in differentiated adipocytes [2] | reduction of glucose uptake ([1]; WT cells treated with exogenous heparin (100 μg/ml) during differentiation, basal) [%] | differential in glucose uptake versus WT after insulin stimulation ([1]; WT cells with heparin, insulin stimulated) [%] | glucose uptake at day 6 ([1]; heparin 100 μg/ml from start, cells treated up to day 3 and beyond) | glucose uptake, acute treatment of mature adipocytes ([1]; heparin 100 μg/ml simultaneously with 3[H]-2-deoxy-glucose administration, WT and Ndst1−/−) | glucose uptake at day 6 ([1]; heparin added after day 4 of differentiation) | glucose uptake potential relative to untreated WT adipocytes ([1]; soluble heparin 100 μg/ml) | 3[H]-2-deoxy-glucose uptake ([2]; Ndst1−/− MEFs treated 1 hour at 37° C. on day 0 to 3, differentiated adipocytes day 6) | effect of exogenous heparin on glucose uptake ([2]; Ndst1−/− cells treated with exogenous heparin) | glucose levels in the culture medium [5] | lactate production [5] | glucose uptake [6] | FFA uptake [8]
1 | – | – | – | Cc1cc(-c2ccc(CC(=O)Nc3ccc(-c4cccnc4)cc3)cc2)ccn1 [Wnt-C59] | toxic | no effect on cellular glucose clearance | enhanced glucose clearance capacity | – | – | – | – | – | – | – | – | – | – | – | –
2 | 7.55 | 7.52 | reduced binding | heparin | – | – | – | 45 | −44 | significantly reduced glucose uptake | unaltered glucose uptake | can no longer impact glucose uptake | reduces glucose uptake potential | had no effect; also recorded: no effect on cellular glucose uptake | did not have an additive effect on glucose uptake | high glucose levels remaining | decreased lactate production | reduced glucose uptake | did not negatively affect FFA uptake
3 | – | – | – | Oc1nc(-c2ccc(C(F)(F)F)cc2)nc2c1CSCC2 [XAV-939] | – | enhanced glucose clearance | enhanced glucose clearance | – | – | – | – | – | – | – | – | – | – | – | –
